Assay results published in patent publication EP0584223B1, “NOVEL IMMUNOSUPPRESSIVE COMPOUNDS” (VERTEX PHARMACEUTICALS INCORPORATED, priority 1991, dated 1992).

Assays:
[1] = system: PBLs stimulated with LB human viral-transformed B lymphoblastoid cell line; test: MLR bioassay, PBLs stimulated with LB cells; assay type: cell-based; details: mixed lymphocyte reaction, LB stimulator cells, inhibition of proliferation, read-out: LB
From the text: (§1) Fresh peripheral blood lymphocytes (PBLs) from LeukoPak cells or whole blood from random normal blood donors (tested HIV-negative and hepatitis negative) are isolated and separated by density centrifugation over Histopaque 1077 (Sigma Chemical Co., St. Louis, MO). The murine CTLL cytotoxic T cell line and the human Jurkat T cell line are from ATCC (CTLL-2 ATCC TIB214, JURKAT CLONE E6-1 ATCC TIBl52). The human allogeneic B cell lines used for activation of the fresh PBLs are EBV-transformed lymphocytes from normal healthy adult donors with two completely different HLA haplotypes. All cell lines were routinely tested for the presence of Mycoplasma contamination using the Gibco Mycotect test kit and are Mycoplasma-free. Culture medium consists of RPMI 1640 (Gibco, Grand Island, NY) containing penicillin (50 U/ml) and streptomycin (50 µg/ml), L-glutamine 2 mM, 2 mercaptoethanol (5 x 10^-5), 10% heat-inactivated FCS and 10 mM HEPES.
(§2) All chemical stocks were dissolved in DMSO.
(§3) Antigen activated proliferation of PBLs in a primary mixed lymphocyte reaction was assessed in the presence or absence of different concentrations of tested compounds and control drugs. 5 x 10^4 fresh PBLs were stimulated with 5 x 10^3 of Mitomycin C treated-allogeneic EBV-transformed […] cells, LB and JVM, in a final volume of 200 µl per well in 96-well round-bottomed plates (Mishell, B.B. and S.M. Shiigi, Selected Methods in Cellular Immunology W.H. Freeman and Co., San Francisco, CA (1980); Nelson, P.A. et al., Transplantation 50:286 (1990)). Cultures were pulsed on day 6, harvested 24 h later and counted as in previous section.

[2] = system: human peripheral blood lymphocytes (PBC); test: Mitogenesis assay, PMA plus ionomycin stimulated proliferation; assay type: cell-based; details: Lymphocyte, read-out: PMA
[3] = system: CTLL-20 murine T cell line; test: IL-2 microassay, IL-2 dependent CTLL proliferation; assay type: cell-based; details: Mus musculus; inhibition of proliferation of cytotoxic T cells stimulated by IL-2; read-out: CTLL
[4] = system: PBLs stimulated with JVM human viral-transformed B lymphoblastoid cell line; test: MLR bioassay, PBLs stimulated with JVM cells; assay type: cell-based; details: mixed lymphocyte reaction, JVM stimulator cells, inhibition of proliferation, read-out: JVM
From the text: as §1, §2, §3

[5] = system: human peripheral blood lymphocytes (PBC); test: Mitogenesis assay, OKT3 stimulated proliferation; assay type: cell-based; details: Lymphocyte, OKT3 (10^-4 dilution final), inhibition of proliferation, 3H-thymidine, read-out: OKT3
FKBP = FKBP (Homo sapiens, UniProt P62942); test: Inhibition of FKBP PPIase (rotamase) activity, chymotrypsin-coupled assay; assay type: biochemical; details: apparent Ki
FKBP, sequence (P62942 whole entry): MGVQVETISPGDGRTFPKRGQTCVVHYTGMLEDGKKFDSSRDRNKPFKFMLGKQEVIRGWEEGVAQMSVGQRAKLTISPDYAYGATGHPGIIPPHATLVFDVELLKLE
From the text: The inhibition of the PPIase (rotamase) enzyme activity of the FKBP (apparent "Ki" values) can also be measured according to the methods described by either Harding, M.W. et al., Nature 341:758-760 (1989) or Siekierka, J.J. et al., Nature 341:755-757 (1989). The cis-trans isomerization of the […] peptide bond in a model substrate, N-succinyl-Ala-Ala-Pro-Phe-p-nitroanilide, is monitored spectrophotometrically in a coupled assay with chymotrypsin, which releases 4-nitroanilide from the trans form of the substrate. Fischer, G. et al., Nature 337:476-478 (1989). The inhibitory effect of the addition of different concentrations of inhibitor on the extent of the reaction is determined, and analysis of the change in first order rate constant as a function of inhibitor concentration yields an estimate of the apparent Ki value.

Row | Ki (FKBP) | SMILES | IC50 [1] | IC50 [2] | IC50 [3] | IC50 [4] | IC50 [5] | IC50 ([2]; 3 h)
1 | – | COc1cc(C(=O)C(=O)N2CCCC[C@H]2C(=O)OC(CCCc2ccccc2)CCCn2ccc3cccnc32)cc(OC)c1OC (stereo partly shown) [Compound 23] | 7 µM | 5 µM | 3.5 µM | 6 µM | 7 µM | –
2 | 0.089 µM | COc1cc(C(=O)C(=O)N2CCCC[C@H]2C(=O)OC(CCCc2ccccc2)c2ccccc2CO)cc(OC)c1OC (stereo partly shown) [Compound 33] | 2 µM | – | 3 µM | 4.5 µM | 5 µM | 5 µM
3 | 0.057 µM | COc1cc(C(=O)C(=O)N2CCCC[C@H]2C(=O)OCC(CCc2ccccc2)Cc2ccccc2)cc(OC)c1OC (mixture of isomers) [Compound 16, (R and S)-2-Benzyl-4-phenyl-1-butyl (S)-N-(3,4,5-trimethoxyphenylglyoxyl)pipecolate] | 9 µM | – | 6 µM | > 10 µM | 7 µM | 5 µM
4 | – | COc1cc(C(=O)C(=O)N2CCCC[C@H]2C(=O)OC(CCCc2ccccc2)c2ccccc2O)cc(OC)c1OC (stereo partly shown) [Compound 38] | > 10 µM | > 10 µM | > 10 µM | > 10 µM | 5 µM | –
5 | 0.27 µM | COc1ccc(CCC(CCCc2ccccc2)OC(=O)[C@@H]2CCCCN2C(=O)C(=O)c2ccccc2)cc1 (stereo partly shown) [Compound 14] | > 10 µM | – | > 10 µM | > 10 µM | > 10 µM | > 10 µM
6 | 0.22 µM | COc1cc(C(=O)C(=O)N2CCCC[C@H]2C(=O)OC(CCCc2ccccc2)c2cccc(Oc3ccccc3)c2)cc(OC)c1OC (mixture of isomers) [Compound 4, (R and S)-1-(3-Phenoxy)phenyl-4-phenyl-1-butyl (S)-N-(3,4,5-trimethoxyphenylglyoxyl)pipecolate] | > 10 µM | – | > 10 µM | > 10 µM | > 10 µM | > 10 µM
7 | 0.024 µM | COc1cc(C(=O)C(=O)N2CCCC[C@H]2C(=O)OC(CCCc2c[nH]c3ccccc23)Cc2ccccc2)cc(OC)c1OC (mixture of isomers) [Compound 11, (R and S)-5-(3-indolyl)-1-phenyl-2-pentyl (S)-N-(3,4,5-trimethoxyphenylglyoxyl)pipecolate] | 3.5 µM | – | 10 µM | 6.5 µM | 2 µM | 2.7 µM
8 | 0.02 µM | COc1cc(C(=O)C(=O)N2CCCC[C@H]2C(=O)OC(CCCCc2ccccc2)CCCc2ccccc2)cc(OC)c1OC (stereo partly shown) [Compound 32] | > 10 µM | – | 7.5 µM | > 10 µM | 8 µM | 9 µM
9 | 1.1 µM | COc1cc(C(=O)C(=O)N2CCCC[C@H]2C(=O)OC(CCCCc2ccccc2)CCCc2cccs2)cc(OC)c1OC (stereo partly shown) [Compound 40] | > 10 µM | – | 10 µM | > 10 µM | > 10 µM | > 10 µM
10 | 0.05 µM | O=C(C(=O)N1CCCC[C@H]1C(=O)OC(CCCc1ccccc1)CCCc1ccccn1)c1ccccc1 (stereo partly shown) [Compound 19] | 10 µM | – | 5 µM | 10 µM | 8 µM | 6 µM
11 | 0.01 µM | COc1cc(C(=O)C(=O)N2CCCC[C@H]2C(=O)OC(CCCc2ccccc2)c2cccnc2)cc(OC)c1OC (stereo partly shown) [Compound 39] | – | – | 2.5 µM | 5 µM | 5.5 µM | 6 µM
12 | – | COc1cc(C(=O)C(=O)N2CCCC[C@H]2C(=O)OC(CCCc2ccccc2)CCc2cccnc2)cc(OC)c1OC (mixture of isomers) [Compound 7, (R and S)-6-Phenyl-1-(3-pyridyl)-3-hexyl (S)-N-(3,4,5-trimethoxyphenylglyoxyl)pipecolate] | 5 µM | – | 2 µM | 5 µM | 2 µM | 2 µM
13 | 0.083 µM | COc1cc(C(=O)C(=O)N2CCCC[C@H]2C(=O)OC(CCCc2ccccc2)CCc2ccccc2)cc(OC)c1OC (stereo partly shown) [Compound 12] | 10 µM | – | 8.1 µM | 10 µM | 5 µM | 7 µM
14 | 0.011 µM | C=CCOc1cccc(C(=O)C(=O)N2CCCC[C@H]2C(=O)OC(CCCc2ccccc2)CCCc2cccnc2)c1 (stereo partly shown) [Compound 28] | 8 µM | – | 3 µM | 9 µM | 6 µM | 5 µM
15 | 0.095 µM | COc1cc(C(=O)C(=O)N2CCC[C@H]2C(=O)OC(CCCc2ccccc2)CCCc2ccccn2)cc(OC)c1OC (stereo partly shown) [Compound 2] | 8 µM | – | 4 µM | 7 µM | 1.5 µM | 3.5 µM
16 | 0.045 µM | COc1cc(C(=O)C(=O)N2CCCC[C@H]2C(=O)OC(CCCCCc2ccccc2)CCCc2ccccc2)cc(OC)c1OC (stereo partly shown) [Compound 41] | > 10 µM | – | > 10 µM | 10 µM | > 10 µM | 7 µM
17 | – | COc1cc(C(=O)C(=O)N2CCCC[C@H]2C(=O)OC(CCCc2ccccc2)CCCn2cnc3ccccc32)cc(OC)c1OC (stereo partly shown) [Compound 15] | 6 µM | 3 µM | 5 µM | 8 µM | 3 µM | –
18 | 0.032 µM | COc1cc(C(=O)C(=O)N2CCCC[C@H]2C(=O)OC(CCCc2ccccc2)Cc2ccccc2)cc(OC)c1OC (stereo partly shown) [Compound 10] | 5.5 µM | – | 6 µM | 8 µM | 4 µM | 5.5 µM
19 | – | COc1cc(C(=O)C(=O)N2CCCC[C@H]2C(=O)OC(CCCc2ccccc2)CCCc2cccnc2)cc(OC)c1OC (mixture of isomers) [Compound 9, (R and S)-1-Phenyl-7-(3-pyridyl)-4-heptyl (S)-N-(3,4,5-trimethoxyphenylglyoxyl)pipecolate] | 6 µM | – | 2.5 µM | 6 µM | 1.2 µM | 1.8 µM
20 | 0.036 µM | CC(C)(C)C(=O)C(=O)N1CCCC[C@H]1C(=O)OC(CCCc1ccccc1)CCCc1ccccn1 (mixture of isomers) [Compound 21, (R and S)-1-Phenyl-7-(2-pyridyl)-4-heptyl (S)-N-(tert-butylglyoxyl)-pipecolate] | 6 µM | – | 4 µM | 7 µM | 3 µM | 7 µM
21 | 0.056 µM | O=C(C(=O)N1CCCC[C@H]1C(=O)OC(CCCc1ccccc1)CCCc1cccnc1)c1ccccc1 (stereo partly shown) [Compound 18] | 8 µM | – | 7 µM | 9 µM | 7 µM | 5 µM
22 | – | COc1cc(C(=O)C(=O)N2CCCC[C@H]2C(=O)OC(CCCc2ccccc2)CCCc2ccccc2)cc(OC)c1OC [Compound 3, (S)-1,7-Diphenyl-4-heptanyl N-(3,4,5-trimethoxyphenylglyoxyl)pipecolate] | 10 µM | – | 8 µM | 8.5 µM | 2.25 µM | > 8 µM
23 | 0.015 µM | O=C(C(=O)N1CCCC[C@H]1C(=O)OC(CCCc1ccccc1)CCCc1cccnc1)c1cccc(OCc2ccccc2)c1 (stereo partly shown) [Compound 27] | 10 µM | – | 5 µM | 6 µM | 4 µM | 6 µM
24 | – | COc1cc(C(=O)C(=O)N2CCCC[C@H]2C(=O)OC(CCCc2ccccc2)CCCc2ccc[n+]([O-])c2)cc(OC)c1OC (mixture of isomers) [Compound 22, (R and S)-1-Phenyl-7-(3-pyridyl)-4-heptyl (S)-N-(3,4,5-trimethoxyphenylglyoxyl)pipecolate N-oxide] | 2.2 µM | 1.5 µM | 2.3 µM | 2.5 µM | 1.6 µM | –
